Key:
[1] = biological target: T1, CDK2 (Homo sapiens, UniProt P24941); test: CDK2 HTRF assay: cellular endogenous CDK2 level in OVCAR3 cells; type: cell-based; details: 24 hours compound treatment, read-out: DC50 (half maximal degradation concentration of CDK2)
T1 construct: High-Throughput Measurement of Cellular Endogenous CDK2; endogenous in cells; host or cells: OVCAR3
Method in brief: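 Endogenous CDK2 degradation in OVCAR3 cells after 24 h compound treatment at 0.3–10,000 nM. Lysates assayed with an HTRF total-CDK2 two-antibody kit, TR-FRET 665/620 ratio normalized to DMSO. DC50 from four-parameter logistic fit, reported as potency bins.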

[2] = biological target: T1, CDK2; test: Inhibition of CDK2: phospho-Rb (S807/811) HTRF measurement in OVCAR3 cells; type: cell-based; details: 24 h compound treatment, read-out: pRb (nM), IC50 in pRB(S807/811) assay

`O=C1CCC(NC2CCN(Cc3cccc(S(=O)(=O)N4CCC(Nc5ncc(C(F)(F)F)c(-c6cnn(CC(F)(F)F)c6)n5)CC4)c3)CC2)C(=O)N1` (stereo not drawn) [Example 72, 3-((1-(3-((4-((4-(1-(2,2,2-trifluoro-ethyl)-1H-pyrazol-4-yl)-5-(trifluoromethyl)-pyrimidin-2-yl)amino)-piperidin-1-yl)-sulfonyl)benzyl)piperidin-4-yl)amino)-piperidine-2,6-dione] was tested, and the DC50 [1] was under 0.1 µM and the IC50 [2] was under 100 nM.

Compound `Cn1nc(N2CCC(=O)NC2=O)c2cc(F)c(N3CCN(Cc4cccc(S(=O)(=O)N5CC[C@H](Nc6ncc(C(F)(F)F)c(-c7cnn(CC(F)(F)F)c7)n6)[C@H](F)C5)c4)CC3)cc21` [Example 73, 1-(5-fluoro-6-(4-(3-(((3R,4S)-3-fluoro-4-((4-(1-(2,2,2-trifluoroethyl)-1H-pyrazol-4-yl)-5-(trifluoromethyl)pyrimidin-2-yl)amino)piperidin-1-yl)sulfonyl)-benzyl)piperazin-1-yl)-1-methyl-1H-indazol-3-yl)dihydropyrimidine-2,4(1H,3H)-dione] has a DC50 [1] of under 0.1 µM and an IC50 [2] of under 100 nM.

Work on `Cn1nc(N2CCC(=O)NC2=O)c2ccc(C3CCN(Cc4cccc(S(=O)(=O)[C@H]5CC[C@H](Nc6ncc(C(F)(F)F)c(-c7cnn(CC(F)(F)F)c7)n6)CC5)c4)CC3)cc21` [Example 74, 1-(1-methyl-6-(1-(3-(((1r,4r)-4-((4-(1-(2,2,2-trifluoroethyl)-1H-pyrazol-4-yl)-5-(trifluoromethyl)pyrimidin-2-yl)-amino)cyclohexyl)sulfonyl)benzyl)-piperidin-4-yl)-1H-indazol-3-yl)dihydro-pyrimidine-2,4(1H,3H)-dione] yielded a DC50 [1] of under 0.1 µM and an IC50 [2] of under 100 nM.

`Cc1ncsc1-c1ccc([C@H](C)NC(=O)[C@@H]2C[C@@H](O)CN2C(=O)[C@@H](NC(=O)C2(F)CC2)C(C)(C)SCC2CCN(Cc3cccc(S(=O)(=O)N4CCC(Nc5ncc(C(F)(F)F)c(-c6cnn(CC(F)(F)F)c6)n5)CC4)c3)CC2)cc1` [Example 77, (2S,4R)-1-((R)-2-(1-fluorocyclopropane-1-carboxamido)-3-methyl-3-(((1-(3-((4-((4-(1-(2,2,2-trifluoroethyl)-1H-pyrazol-4-yl)-5-(trifluoromethyl)pyrimidin-2-yl)-amino)piperidin-1-yl)sulfonyl)-benzyl)-piperidin-4-yl)methyl)thio)-butanoyl)-4-hydroxy-N-((S)-1-(4-(4-methylthiazol-5-yl)phenyl)ethyl)-pyrrolidine-2-carboxamide] showed a DC50 [1] of under 0.1 µM and an IC50 [2] of under 100 nM.

`CC(Cc1cccc(S(=O)(=O)N2CCC(Nc3ncc(C(F)(F)F)c(-c4cnn(CC(F)(F)F)c4)n3)CC2)c1)CN1CCC(c2ccc3c(N4CCC(=O)NC4=O)nn(C)c3c2)CC1` (stereo not drawn) [Example 78, 1-(1-methyl-6-(1-(2-methyl-3-(3-((4-((4-(1-(2,2,2-trifluoroethyl)-1H-pyrazol-4-yl)-5-(trifluoromethyl)-pyrimidin-2-yl)amino)piperidin-1-yl)sulfonyl)-phenyl)propyl)piperidin-4-yl)-1H-indazol-3-yl)dihydro-pyrimidine-2,4(1H,3H)-dione] was tested, and the DC50 [1] was under 0.1 µM and the IC50 [2] was under 100 nM.

`CN1CCC(n2cc(-c3nc(NC4CCN(S(=O)(=O)c5cccc(CN6CCC(c7ccc8c(N9CCC(=O)NC9=O)nn(C)c8c7)CC6)c5)CC4)ncc3C(F)(F)F)cn2)CC1` [Example 79, 1-(1-methyl-6-(1-(3-((4-((4-(1-(1-methylpiperidin-4-yl)-1H-pyrazol-4-yl)-5-(trifluoromethyl)pyrimidin-2-yl)-amino)piperidin-1-yl)sulfonyl)-benzyl)-piperidin-4-yl)-1H-indazol-3-yl)dihydro-pyrimidine-2,4(1H,3H)-dione] showed a DC50 [1] of under 0.1 µM and an IC50 [2] of under 100 nM.

`O=C1CCN(C2CCN(Cc3cccc(S(=O)(=O)N4CCC(Nc5ncc(C(F)(F)F)c(-c6cnn(CC(F)(F)F)c6)n5)CC4)c3)C2)C(=O)N1` (stereo not drawn) [Example 81, 1-(1-(3-((4-((4-(1-(2,2,2-trifluoro-ethyl)-1H-pyrazol-4-yl)-5-(trifluoromethyl)-pyrimidin-2-yl)amino)-piperidin-1-yl)sulfonyl)benzyl)-pyrrolidin-3-yl)-dihydropyrimidine-2,4(1H,3H)-dione] gave a DC50 [1] of under 0.1 µM and an IC50 [2] of under 100 nM.

Work on `Cn1nc(N2CCC(=O)NC2=O)c2ccc(N3CC4CC(C3)N4Cc3cccc(S(=O)(=O)N4CC[C@H](Nc5ncc(C(F)(F)F)c(-c6cnn(CC(F)(F)F)c6)n5)[C@H](F)C4)c3)cc21` [Example 82, 1-(6-(6-(3-(((3R,4S)-3-fluoro-4-((4-(1-(2,2,2-trifluoroethyl)-1H-pyrazol-4-yl)-5-(trifluoromethyl)pyrimidin-2-yl)amino)-piperidin-1-yl)sulfonyl)-benzyl)-3,6-diazabicyclo[3.1.1]heptan-3-yl)-1-methyl-1H-indazol-3-yl)dihydro-pyrimidine-2,4(1H,3H)-dione] yielded a DC50 [1] of under 0.1 µM and an IC50 [2] of under 100 nM.

Work on `O=C1CCC(NS(=O)(=O)N2CCC(Nc3ncc(C(F)(F)F)c(-c4cnn(CC(F)(F)F)c4)n3)CC2)C(=O)N1` (stereo not drawn) [Example 83, N-(2,6-dioxopiperidin-3-yl)-4-((4-(1-(2,2,2-trifluoroethyl)-1H-pyrazol-4-yl)-5-(trifluoromethyl)pyrimidin-2-yl)-amino)piperidine-1-sulfonamide] yielded a DC50 [1] of under 0.1 µM and an IC50 [2] of 100 to 500 nM.

`Cn1nc(N2CCC(=O)NC2=O)c2ccc(C3CCN(C(c4cccc(S(=O)(=O)N5CCC(Nc6ncc(C(F)(F)F)c(-c7cnn(CC(F)(F)F)c7)n6)CC5)c4)C(F)F)CC3)cc21` (stereo not drawn) [Example 84, 1-(6-(1-(2,2-difluoro-1-(3-((4-((4-(1-(2,2,2-trifluoroethyl)-1H-pyrazol-4-yl)-5-(trifluoromethyl)pyrimidin-2-yl)amino)-piperidin-1-yl)sulfonyl)-phenyl)ethyl)-piperidin-4-yl)-1-methyl-1H-indazol-3-yl)dihydropyrimidine-2,4(1H,3H)-dione] was tested, and the DC50 [1] was under 0.1 µM and the IC50 [2] was under 100 nM.

`Cn1nc(N2CCC(=O)NC2=O)c2ccc(N3CCN(CC4CCN(S(=O)(=O)N5CCC(Nc6ncc(C(F)(F)F)c(-c7cnn(CC(F)(F)F)c7)n6)CC5)CC4)CC3)cc21` [Example 86, 1-(1-methyl-6-(4-((1-((4-((4-(1-(2,2,2-trifluoroethyl)-1H-pyrazol-4-yl)-5-(trifluoromethyl)pyrimidin-2-yl)-amino)piperidin-1-yl)sulfonyl)-piperidin-4-yl)methyl)piperazin-1-yl)-1H-indazol-3-yl)dihydropyrimidine-2,4(1H,3H)-dione] showed a DC50 [1] of under 0.1 µM and an IC50 [2] of under 100 nM.

`Cn1nc(N2CCC(=O)NC2=O)c2ccc(C3CCN(CC4CCN(S(=O)(=O)N5CCC(Nc6ncc(C(F)(F)F)c(-c7cnn(CC(F)(F)F)c7)n6)CC5)C4)CC3)cc21` (stereo not drawn) [Example 88, 1-(1-methyl-6-(1-((1-((4-((4-(1-(2,2,2-trifluoroethyl)-1H-pyrazol-4-yl)-5-(trifluoromethyl)pyrimidin-2-yl)amino)-piperidin-1-yl)sulfonyl)-pyrrolidin-3-yl)methyl)piperidin-4-yl)-1H-indazol-3-yl)dihydropyrimidine-2,4(1H,3H)-dione] gave a DC50 [1] of under 0.1 µM and an IC50 [2] of under 100 nM.

— patent US20260274853A1, “BIFUNCTIONAL COMPOUNDS CONTAINING PYRIMIDINE DERIVATIVES FOR DEGRADING CYCLIN-DEPENDENT KINASE 2 VIA UBIQUITIN PROTEASOME PATHWAY” (NIKANG THERAPEUTICS, INC., priority 2022, published 2026)
